The test system of data set [1] is over 50 human tumour cell lines. The conditions noted are these: 48-h sulphurhodamine B-assay.
Procedure: First in vitro tests were carried out at the National Cancer Institute (Bethesda, Md., USA).
Data set [2] has as its system 13 human tumour xenografts and 10 human tumour cell lines. The conditions noted are these: propidium iodide assay.
[3] abbreviates: mean over more than 50 human tumour cell lines.
The mark [4] stands for this setting: mean over 13 human tumour xenografts and 10 human tumour cell lines.

pIC50: −log10 of the molar value.

With `O.[Cl-].[Cl-].[Cl][Ce+2].c1cnc2c(c1)ccc1cccnc12.c1cnc2c(c1)ccc1cccnc12` [KP 776, trans-[aquachlorobis(1,10-phenantrolin)cerium(III)]-dichloride], in data set [1] (setting [3]), the “Mean Gl50” value was 0.61 µg/mL and the “Mean LC50” value came to 39.4 µg/mL. For the same compound, in data set [1] (result in words), the “activity on single ovarian, kidney cell and parvicellular and non-parvicellular bronchial carcinoma cell lines” value is on record as “Above average activities”; the “selectivity among tumour cell line types” value is recorded as “a certain selectivity for malignant melanoma was evident”. Further, in data set [1] (read-out: Mean Gl50, mean over more than 50 human tumour cell lines), the pIC50 is 6.01. Also, in data set [1] (read-out: Mean LC50, mean over more than 50 human tumour cell lines), the CC50 is 63.1 µM. In addition, in data set [2] (setting [4]), the “Mean IC50” value was found to be 1.20 µg/mL and the “Mean IC90” value was determined as 7.27 µg/mL. Besides, the “tumour type with strongest effectiveness” value in data set [2] (result in words) is given as “the strongest effectiveness was found on a melanoma (xenograft)”. For the same compound, in data set [2] (read-out: Mean IC50, mean over 13 human tumour xenografts and 10 human tumour cell lines), the pIC50 is 5.72. Besides, the IC90 in data set [2] (read-out: Mean IC90, mean over 13 human tumour xenografts and 10 human tumour cell lines) is 11.6 µM.

These data come from patent US6921768B2, “Cytostatic cerium compounds” (Faustus Forschungs Cie. Translational Cancer Research GmbH, priority 2001, dated 2005).
